Test [1] deals with CRAC channels (Homo sapiens (Human), UniProt Q96D31). Briefly: In-vitro CRAC channel inhibition assay in Jurkat cells (thapsigargin-induced calcium influx). The format is cell-based. As for the experimental part: Inhibition of CRAC channels was determined following thapsigargin (Sigma, Cat # T9033) induced endoplasmic calcium release in Jurkat cells. (see Yasurio Yonetoky et. al Bio. & Med. Chem. 14 (2006) 4750-4760). Cells were centrifuged and resuspended in equal volumes ° f Ca^2+ and Mg^2+ free Hanks buffer and Fluo-8 NW dye (ABD Bioquest, Inc., Sunnyvale, Calif.) loading solution at 2×10^5 cells/100 μl/well in 96-well black plate. Plate is incubated at 37° C./5% CO2 for 30 mM followed by further 15 mM incubation at room temperature. Test compounds (DMSO stocks diluted in Ca^2+ and Mg^2+ free Hanks buffer) at desired concentrations were added to the wells and incubated for […]. Thapsigargin (1 μM final concentration) was added to the wells and incubated for 15 min to inhibit the Sarco-endoplasmic reticulum Ca^2+ ATPase pump thereby depleting endoplasmic calcium and raising cytosolic calcium concentrations. Store-operated calcium entry was initiated by adding extracellular Ca^2+ to a final concentration of 1.8 mM. Fluorescence was monitored over […] on a plate reader (BMG Labtech., Germany) with excitation at 485 nm and an emission wavelength at 520 nm. Data were analyzed using GraphPad Prism. IC50 for each compound was determined based on the percent inhibition of thapsigargin-induced calcium influx into cells.
CRAC channels, sequence (Q96D31 whole entry): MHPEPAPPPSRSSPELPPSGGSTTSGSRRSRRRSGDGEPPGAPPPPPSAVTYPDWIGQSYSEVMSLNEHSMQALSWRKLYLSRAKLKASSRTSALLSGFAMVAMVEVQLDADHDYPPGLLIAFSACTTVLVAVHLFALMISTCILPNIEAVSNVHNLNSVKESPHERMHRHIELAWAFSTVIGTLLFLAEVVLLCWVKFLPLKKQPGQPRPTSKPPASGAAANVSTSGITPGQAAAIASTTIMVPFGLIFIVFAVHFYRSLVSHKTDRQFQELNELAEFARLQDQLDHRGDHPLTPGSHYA

Test [2] deals with NCI-H460 cells. Briefly: In-vitro cell proliferation assay in NCI-H460 cancer cell line (MTT). The class given is cell-based, human. The settings on record: Homo sapiens; for inhibition at 10 µM: NCI-H460, 10 μM, 48 h; for IC50: NCI-H460, 48 h, read-out: NCI-H460 Cell line assay G1 50 nM. As for the experimental part: Growth inhibition assays were carried out using 10% FBS supplemented media. Cells were seeded at a concentration of 5000 cells/well in a 96-well plate. Test compound at a concentration range from 0.01 to 10000 nM were added after 24 h. Growth was assessed using the 3-[4,5-dimethylthiazol-2-yl]-2,5-diphenyltetrazolium bromide (MTT) dye reduction test at 0 h (prior to the addition of the test compound) and 48 h after the addition of test compound. Absorbance was read on a Fluostar Optima (BMG Labtech, Germany) at a wave length of 450 nm. Data were analysed using GraphPad Prism. IC-50 for each compound was determined based on the % inhibition due to the test compound compared to the control.
For methods of cell proliferation assay, see, for example, Mosmann. T., Journal of Immunological Methods, 65(1-2), 55-63, (1983).
The effect of CRAC and/or STIM protein on the proliferation and viability of lung cancer cells was determined as follows.
For Methodology Refer 1C.

Structures can show the parent of a compound that is named as a salt.

In general, inhibition refers to the share of the control response that was lost under treatment.

Take `O=C(Nc1ccc(-n2nc(C3CC3)cc2C2CC2)cc1)c1ccc2nc[nH]c2c1` [Example 1, N-[4-(3,5-dicyclopropyl-1H-pyrazol-1-yl)phenyl]-1H-benzo[d]imidazole-6-carboxamide]: in test [1] (1 uM), the inhibition at 1 µM was 57.6%.
On the same count and under the same terms, then `O=C(Cc1c[nH]c2ccccc12)Nc1ccc(-n2nc(C3CC3)cc2C2CC2)cc1` [Example 7, N-[4-(3,5-dicyclopropyl-1H-pyrazol-1-yl)phenyl]-2-(1H-indol-3-yl)acetamide], with 36.8%; and `O=C(Cc1cn2ccccc2n1)Nc1ccc(-n2nc(C3CC3)cc2C2CC2)cc1` [Example 8, N-[4-(3,5-dicyclopropyl-1H-pyrazol-1-yl)phenyl]-2-(imidazo[1,2-a]pyridin-2-yl)acetamide Hydrochloride], with 17.9%.
In the case of `O=C(Cn1nnc2ccccc21)Nc1ccc(-n2nc(C3CC3)cc2C2CC2)c(F)c1` [Example 11, 2-(1H-benzo[d][1,2,3]triazol-1-yl)-N-(4-(3,5-dicyclopropyl-1H-pyrazol-1-yl)-3-fluorophenyl)acetamide], the inhibition at 1 µM in test [1] (1 uM) turned out to be 78.6%.
In the case of `O=C(Cc1ccc2ncccc2c1)Nc1ccc(-n2nc(C3CC3)cc2C2CC2)c(F)c1` [Example 12, N-[4-(3,5-dicyclopropyl-1H-pyrazol-1-yl)-3-fluorophenyl]-2-(quinolin-6-yl)acetamide Hydrochloride], the inhibition at 10 µM in test [2] came out at 90%. Further, the results for the IC50 in test [2] and in test [1] were 0.1 µM and 0.263 µM, respectively. For the same molecule, the inhibition at 1 µM in test [1] (1 uM) came out at 100%.
Turning to `O=C(Nc1ccc(-n2nc(C3CC3)cc2C2CC2)nc1)c1ccc2ncccc2c1` [Example 13, N-[6-(3,5-dicyclopropyl-1H-pyrazol-1-yl)pyridin-3-yl]quinoline-6-carboxamide Dihydrochloride], the inhibition at 1 µM in test [1] (1 uM) was found to be 22.4%.
As to `O=C(Nc1ccc(-n2nc(C3CC3)cc2C2CC2)nc1)c1ccc2nccnc2c1` [Example 14, N-[6-(3,5-dicyclopropyl-1H-pyrazol-1-yl)pyridin-3-yl]quinoxaline-6-carboxamide], the inhibition at 1 µM in test [1] (1 uM) was 17.8%.
Same read-out and setting: then `O=C(Cn1nnc2ccccc21)Nc1ccc(-n2nc(C3CC3)cc2C2CC2)nc1` [Example 15, 2-(1H-benzo[d][1,2,3]triazol-1-yl)-N-[6-(3,5-dicyclopropyl-1H-pyrazol-1-yl)pyridin-3-yl]acetamide], with 3.93%.
For the molecule `Cl.Cl.O=C(Cc1ccc2ncccc2c1)Nc1ccc(-n2nc(C3CC3)cc2C2CC2)nc1` [Example 16, N-[6-(3,5-dicyclopropyl-1H-pyrazol-1-yl)pyridin-3-yl]-2-(quinolin-6-yl)acetamidedihydrochloride], in test [1] (1 uM), the “% inhibition (1 uM)” value stood at 30.81%.
Take `O=C(Nc1ccc(-n2nc(C(F)(F)F)cc2C2CC2)cc1)c1ccc2nccnc2c1` [Example 18, N-{4-[5-cyclopropyl-3-(trifluoromethyl)-1H-pyrazol-1-yl]phenyl}quinoxaline-6-carboxamide]: the IC50 in test [1] came out at 0.0534 µM. Moreover, the inhibition at 1 µM in test [1] (1 uM) stood at 96.6%.
For `O=C(Cn1nc2ccccc2n1)Nc1ccc(-n2nc(C(F)(F)F)cc2C2CC2)cc1` [Example 21, 2-(2H-benzo[d][1,2,3]triazol-2-yl)-N-{4-[5-cyclopropyl-3-(trifluoromethyl)-1H-pyrazol-1-yl]phenyl}acetamide] the same measures were 0.139 µM and 83%.
As for `O=C(Cn1nnc2cccnc21)Nc1ccc(-n2nc(C(F)(F)F)cc2C2CC2)cc1` [Example 22, 2-(3H-[1,2,3]triazolo[4,5-b]pyridin-3-yl)-N-{4-[5-cyclopropyl-3-(trifluoromethyl)-1H-pyrazol-1-yl]phenyl}acetamide], the inhibition at 1 µM in test [1] (1 uM) was 30.9%.
The same measure, in the same setting: then `C[C@@H](C(=O)Nc1ccc(-n2nc(C(F)(F)F)cc2C2CC2)cc1)n1nnc2cccnc21` [Example 23, (S)-2-(3H-[1,2,3]triazolo[4,5-b]pyridin-3-yl)-N-{4-[5-cyclopropyl-3-(trifluoromethyl)-1H-pyrazol-1-yl]phenyl}propanamide], with 69.9%.
As to `Nc1ncnc2c1ncn2CC(=O)Nc1ccc(-n2nc(C(F)(F)F)cc2C2CC2)cc1` [Example 24, 2-(6-amino-9H-purin-9-yl)-N-{4-[5-cyclopropyl-3-(trifluoromethyl)-1H-pyrazol-1-yl]phenyl}acetamide], in test [2], the inhibition at 10 µM came out at 84.4%. Besides, the inhibition at 1 µM in test [1] (1 uM) came out at 14.8%.
As for `Cn1c(=O)c2c(ncn2CC(=O)Nc2ccc(-n3nc(C(F)(F)F)cc3C3CC3)cc2)n(C)c1=O` [Example 25, N-(4-(5-cyclopropyl-3-(trifluoromethyl)-1H-pyrazol-1-yl)phenyl)-2-(1,3-dimethyl-2,6-dioxo-2,3-dihydro-1H-purin-7(6H)-yl)acetamide], the inhibition at 1 µM in test [1] (1 uM) came to 39.1%.
As for `O=C(Cc1cn2ccccc2n1)Nc1ccc(-n2nc(C(F)(F)F)cc2C2CC2)cc1` [Example 26, N-{4-[5-cyclopropyl-3-(trifluoromethyl)-1H-pyrazol-1-yl)phenyl)-2-(imidazo[1,2-a]pyridin-2-yl)acetamide Hydrochloride], the inhibition at 1 µM in test [1] (1 uM) stood at 30.9%.
The same measure, in the same setting: then `CC(C(=O)Nc1ccc(-n2nc(C(F)(F)F)cc2C2CC2)cc1)c1ccc2ncccc2c1` (stereo not shown) [Example 28, N-{4-[5-cyclopropyl-3-(trifluoromethyl)-1H-pyrazol-1-yl]phenyl}-2-(quinolin-6-yl)propanamide Hydrochloride], with 0%.
Consider `O=C(Nc1ccc(-n2nc(C(F)(F)F)cc2C2CC2)c(F)c1)c1ccc2nn[nH]c2c1` [Example 29, N-{4-[5-cyclopropyl-3-(trifluoromethyl)-1H-pyrazol-1-yl]-3-fluorophenyl}-1H-benzo[d][1,2,3]triazole-6-carboxamide], for which, in test [2], the inhibition at 10 µM is 100% and the IC50 was 1.52 µM. In addition, the inhibition at 1 µM in test [1] (1 uM) is 81.1%.
Consider `O=C(Cn1nnc2ccccc21)Nc1ccc(-n2nc(C(F)(F)F)cc2C2CC2)c(F)c1` [Example 30, 2-(1H-benzo[d][1,2,3]triazol-1-yl)-N-{4-[5-cyclopropyl-3-(trifluoromethyl)-1H-pyrazol-1-yl]-3-fluorophenyl}acetamide], for which, in test [1], the IC50 worked out at 0.161 µM. In test [1] (1 uM), the inhibition at 1 µM was found to be 100%.
For `O=C(Nc1ccc(-n2nc(C(F)(F)F)cc2C2CC2)nc1)c1ccc2[nH]nnc2c1` [Example 31, N-{6-[5-cyclopropyl-3-(trifluoromethyl)-1H-pyrazol-1-yl]pyridin-3-yl}-1H-benzo[d][1,2,3]triazole-5-carboxamide], the inhibition at 1 µM in test [1] (1 uM) was found to be 50.6%.
For `O=C(Cn1nnc2ccccc21)Nc1ccc(-n2nc(C(F)(F)F)cc2C2CC2)nc1` [Example 32, 2-(1H-benzo[d][1,2,3]triazol-1-yl)-N-{6-[5-cyclopropyl-3-(trifluoromethyl)-1H-pyrazol-1-yl]pyridin-3-yl}acetamide], in test [1] (1 uM), the inhibition at 1 µM was 41.2%.
Same read-out and setting: then `O=C(Cn1nc2ccccc2n1)Nc1ccc(-n2nc(C(F)(F)F)cc2C2CC2)nc1` [Example 33, 2-(2H-benzo[d][1,2,3]triazol-2-yl)-N-{6-[5-cyclopropyl-3-(trifluoromethyl)-1H-pyrazol-1-yl]pyridin-3-yl}acetamide], with 49.5%.
As for `O=C(Cc1ccc2ncccc2c1)Nc1ccc(-n2nc(C(F)(F)F)cc2C2CC2)nc1` [Example 34, N-{6-[5-cyclopropyl-3-(trifluoromethyl)-1H-pyrazol-1-yl]pyridin-3-yl}-2-(quinolin-6-yl)acetamide hydrochloride], in test [2], the inhibition at 10 µM was determined as 82.7% and the IC50 came out at 0.628 µM. The inhibition at 1 µM in test [1] (1 uM) was determined as 51.2%.
As for `O=C(Cn1nnc2ccccc21)Nc1ccc(-n2nc(C(F)(F)F)c(Cl)c2C2CC2)nc1` [Example 35, 2-(1H-benzo[d][1,2,3]triazol-1-yl)-N-{6-[4-chloro-5-cyclopropyl-3-(trifluoromethyl)-1H-pyrazol-1-yl]pyridin-3-yl}acetamide], the inhibition at 1 µM in test [1] (1 uM) worked out at 15%.
On the same count and under the same terms, then `O=C(NCc1ccc2ncccc2c1)c1ccc(-n2nc(C(F)(F)F)cc2C2CC2)c(F)c1` [Example 36, 4-[5-cyclopropyl-3-(trifluoromethyl)-1H-pyrazol-1-yl]-3-fluoro-N-(quinolin-6-ylmethyl)benzamide hydrochloride], with 51%; and `O=C(Nc1ccc(-n2nc(C3CC3)cc2C2CC2)cc1)Nc1ccc2ncccc2c1` [Example 37, 1-[4-(3,5-dicyclopropyl-1H-pyrazol-1-yl)phenyl]-3-(quinolin-6-yl)urea], with 57.3%.

(Values after patent US8993612B2, “Modulators of calcium release-activated calcium channel and methods for treatment of non-small cell lung cancer” (Rhizen Pharmaceuticals SA, priority 2009, dated 2015).)
